The values that follow come from patent EP2197879B1, “C7-SUBSTITUTED CAMPTOTHECIN ANALOGS” (priority 2007, dated 2009).

For one data set, the system named is A2780/DX5 cells. Put plainly: Sulforhodamine B (SRB) cytotoxicity assay in A2780/DX5 cells. It counts as cell-based. The settings on record: for IC50 Ratio: A2780/DX5 versus A2780/WT. As to the method: (§1) Each of the testing conditions used in this study in both A2780/WT (wild-type) and A2780/DX5 cells were repeated in five to fifteen experiments that were performed on separate days. Each experiment consisted of one microtiter plate with at least eight individual assays of a given drug treatment condition on the plate. The sulforhodamine B (SRB) assay was used to assess cytotoxicity and absorbance at 570 nm (A570) in order to calculate the percentage of cell control (or percent cell survival) for the various treatment conditions in the plate wells.
(§2) Roswell Park Memorial Institute (RPMI 1640) medium, fetal bovine serum (FBS), and L-glutamine were purchased from Gibco BRL. Drugs were dissolved in sterile dimethylsulfoxide (DMSO), from American Type Culture Collection (ATCC) for stock solutions (2.5 to 5.0 mM). Subsequent dilutions were made using cell culture medium (prior to adding the drug to cells). SRB was purchased from Sigma and dissolved in 1.0 percent acetic acid. Trichloroacetic acid was purchased from VWR International.
(§3) Cells were manipulated in a Class IIA/B3 Biological Safety Cabinet (Forma Scientific) and maintained at 37°C in a humidified atmosphere containing 5% CO2 in a water-jacketed cell culture incubator (Forma Scientific). Cells were counted using a Coulter-Z1 counter (Beckman-Coulter). Following drug treatment, plates were washed using a Biomek 2000 station (Beckman) and, following exposure to SRB dye, plates were washed using an automated plate washer (Model EL404, Bio-Tek Instruments). Percentage of control was correlated to A570 values and determined using a Model EL800 plate reader (Bio-Tek Instruments).
(§4) Population doubling times for the two cell lines used in this study encompassed a total of five cell doublings corresponding to approximately 5 days for A2780/WT and A2780/DX5 cells. A2780/WT and A2780/DX5 cells were cultured in RPMI 1640 medium supplemented with 10% fetal bovine serum and 1 mM of L-glutamine. Both cell lines were maintained as monolayered cultures in T-25 or T-75 flasks and then seeded to microtiter plate wells for experiments described herein. Prior to SRB assays, cell viability was monitored by evaluation of microtiter plate wells. Dead cells detach and float while living cells remain attached to the bottom of the cell well.
(§5) The sulforhodamine B (SRB) cytotoxicity assay (see, Skehan P, et al., New colorimetric cytotoxicity assay for anticancer-drug screening. J. Natl. Cancer Inst. 82:1107-1112 (1990)) was used to determine the cytotoxic effects of BNP1350, SN-38, topotecan, 9-NH2-CPT, and 9-NO2-CPT on cell growth in vitro. Briefly, after the medium was aspirated from individual plate wells, trichloroacetic acid (100 µL of 10.0% solution) was added to each well, and the plates were incubated at 4°C for at least 1 hour. The plates were washed five-times with water using an automated microplate washer (Model EL 404, Bio-Tek Instruments), SRB solution (100 µL of 0.4 grams SRB dissolved in 100 mL 1.0 percent acetic acid) was added, and plates remained at room temperature for 15 minutes. The plates were then washed five-times using acetic acid (1.0%), air dried, and bound dye was solubilized in Tris base (150 µL, 10 mM). Plates were agitated (gently) for 5 minutes and the absorbance values of the SRB dye-protein adduct at a 570 nm wavelength (A570) were determined using an automated microtiter plate reader equipped with an A570 filter (Model EL800, BioTek Instruments). Table VII. Summary of Cytotoxicity Experiments in A2780/WT and DX5 Cells
(The SRB assay estimates cell density from bound dye.)

Data set [1] has as its system A2780/WT (wild-type) cells. Put plainly: Sulforhodamine B (SRB) cytotoxicity assay in A2780/WT cells. It counts as cell-based. As to the method:
as §1, §2, §3, §4, §5

Where [2] appears, read: Homo sapiens, A2780, read-out: A2780/ DX5 (IC50).
Where [3] appears, read: Homo sapiens, A2780, read-out: A2780/ WT (IC50).
The mark [4] stands for this setting: 100 nM Compound Concentrations, 48 hours or longer at room temperature.
Where [5] appears, read: Homo sapiens, SRB assay, A2780/DX5 cells, read-out: A2780/ DX5 (IC50).
Where [6] appears, read: Homo sapiens, SRB assay, A2780/WT cells, read-out: A2780/ WT (IC50).
[7] abbreviates: SRB assay, A2780/DX5 cells, read-out: A2780/ DX5 (IC50).
Setting [8] is: SRB assay, A2780/WT cells, read-out: A2780/ WT (IC50).

SMILES strings stand for the structures. Like-named read-outs stand apart in the source and are kept apart here.

On to `CC[C@@]1(O)C(=O)OCc2c1cc1n(c2=O)Cc2c-1nc1ccccc1c2CC[Si](C)(C)CCl` [Compound 3, 11-(4S)-[2-(chloromethyldimethylsilanyl)-ethyl]-4-ethyl-4-hydroxy-1,12-dihydro-4H-2-oxa-6,12a-diaza-dibenzo[b,h]fluorene-3,13-dione], for which, in the data set with A2780/DX5 cells, the “IC50 Ratio” value is 1.45. Moreover, the IC50 was 14.5 nM with A2780/DX5 cells (setting [2]) and 10 nM in data set [1] (setting [3]). Further, the “Percent of Free Camptothecin Analogs in Human Plasma” value (from here on “Percent of Free Camptothecin Analogs”) in the data set with human plasma proteins (setting [4]) turned out to be 1%.
For `CC[C@@]1(O)C(=O)OCc2c1cc1n(c2=O)Cc2c-1nc1ccccc1c2CC[Si](C)(C)COC(C)=O` [Compound 6, acetic acid-(4S)-{[2-(4-ethyl-4-hydroxy-3,13-dioxo-3,4,12,13-tetrahydro-1H-2-oxa-6,12a-diaza-dibenzo[b,h]fluoren-11-yl)-ethyl]-dimethylsilanyl}-methyl ester], in the data set with A2780/DX5 cells, the “IC50 Ratio” value is reported as 2.27. Besides, the IC50 is 21.1 nM in the data set with A2780/DX5 cells (setting [5]) and 9.3 nM in data set [1] (setting [6]). The “Percent of Free Camptothecin Analogs” value in the data set on human plasma proteins (human, 100 nM) is on record as 5%.
In the case of `CC[C@@]1(O)C(=O)OCc2c1cc1n(c2=O)Cc2c-1nc1ccccc1c2CC[Si](C)(C)CCCO` [Compound 10, 4S-4-ethyl-4-hydroxy-11-{2-[(3-hydroxypropyl)-dimethylsilanyl]-ethyl}-1,12-dihydro-4H-2-oxa-6,12a-diaza-dibenzo[b,h]fluorene-3,13-dione], the “IC50 Ratio” value in the data set on A2780/DX5 cells was 3.68. For the same compound, the IC50 in the data set with A2780/DX5 cells (setting [7]) is 35.3 nM; in data set [1] (setting [8]), 9.6 nM. The “Percent of Free Camptothecin Analogs” value in the data set on human plasma proteins (setting [4]) came out at 3.4%.
Turning to `CC[C@@]1(O)C(=O)OCc2c1cc1n(c2=O)Cc2c-1nc1ccccc1c2CC[Si](C)(C)Cn1cncn1` [Compound 30, (4S)-11-[2-(dimethyl-[1,2,4]triazol-1-ylmethylsilanyl)-ethyl]-4-ethyl-4-hydroxy-1,12-dihydro-4H-2-oxa-6,12a-diaza-dibenzo[b,h]fluorene-3,13-dione], the “IC50 Ratio” value in the data set on A2780/DX5 cells came out at 7.8. In addition, the figures for the IC50 (in the data set on A2780/DX5 cells (setting [5]); in data set [1] (setting [3])) were 60.4 nM and 7.7 nM, respectively. Also, the “Percent of Free Camptothecin Analogs” value in the data set with human plasma proteins (human, 100 nM) is reported as 8%.
For the compound `CC[C@@]1(O)C(=O)OCc2c1cc1n(c2=O)Cc2c-1nc1ccccc1c2CC[Si](C)(C)CCCOC(C)=O` [Compound 60, Acetic acid 3-{[2-(4-ethyl-4-hydroxy-3,13-dioxo-3,4, 12, 13-tetrahydro-1H-2-oxa-6,12a-diaza-dibenzo[b,h]fluoren-11-yl)-ethyl]-dimethyl-silanyl}-propyl ester], the “IC50 Ratio” value in the data set with A2780/DX5 cells is given as 3. For the same compound, the results for the IC50 (in the data set with A2780/DX5 cells (setting [5]); in data set [1] (setting [6])) were 32.1 nM and 10.6 nM, respectively.
In the case of `CCC1(O)C(=O)OCc2c1cc1n(c2=O)Cc2c-1nc1ccccc1c2CC[Si](C)(C)CCCOC(=O)C1CCC1` (stereo not shown) [Compound 62, Cyclobutanecarboxylic acid 3-{[2-(4-ethyl-4-hydroxy-3, 13-dioxo-3,4, 12, 13-tetrahvdro-1H-2-oxa-6,12a-diaza-dibenzo[b,h]fluoren-11-yl)-ethyl]-dimethyl-silanyl}-propyl ester], the “IC50 Ratio” value with A2780/DX5 cells was determined as 3.77. Further, the IC50 in the data set on A2780/DX5 cells (setting [7]) came out at 39.2 nM; in data set [1] (setting [8]), 10.4 nM.
With `CCC1(O)C(=O)OCc2c1cc1n(c2=O)Cc2c-1nc1ccccc1c2CC[Si](C)(C)CCCOC(=O)C1=CCNO1` (stereo not shown) [Compound 64, 2,3-Dihydro-isoxazole-5-carboxylic acid 3-{[2-(4-ethyl-4-hydroxy-3,13-dioxo-3,4,12,13-tetrahydro-1H-2-oxa-6,12a-diaza-dibenzo[b,h]fluoren-11-yl)-ethyl]-dimethyl-silanyl}-propyl ester], in the data set on A2780/DX5 cells, the “IC50 Ratio” value stood at 4.27. Moreover, the IC50 with A2780/DX5 cells (setting [2]) came out at 59.8 nM; in data set [1] (setting [3]), 14 nM.
In the case of `CCc1c2c(nc3ccccc13)-c1cc3c(c(=O)n1C2)COC(=O)[C@]3(O)CC` [SN-22], in the data set with human plasma proteins (setting [4]), the “Percent of Free Camptothecin Analogs” value stood at 1%.
As for `CCc1c2c(nc3ccc(O)cc13)-c1cc3c(c(=O)n1C2)COC(=O)[C@]3(O)CC` [SN-38, 10-hydroxy-7-ethyl camptothecin], the “Percent of Free Camptothecin Analogs” value in the data set with human plasma proteins (setting [4]) is reported as 15%.
Still for that read-out and setting: for `CC[C@@]1(O)C(=O)OCc2c1cc1n(c2=O)Cc2cc3c(CN(C)C)c(O)ccc3nc2-1` [Topotecan, 9-dimethylaminomethyl-10-hydroxy camptothecin] the value was 100%.
